These results are taken from ChEMBL document CHEMBL3301562, “MMV Box screening against Plasmodium falciparum protein kinases and aminoacyl tRNA synthetases”.

Common to all, as to assay type: functional
The target of experiment [1] is T1, Proline--tRNA ligase (Plasmodium falciparum (isolate 3D7), UniProt Q8I5R7).
T1 sequence (Q8I5R7 whole entry): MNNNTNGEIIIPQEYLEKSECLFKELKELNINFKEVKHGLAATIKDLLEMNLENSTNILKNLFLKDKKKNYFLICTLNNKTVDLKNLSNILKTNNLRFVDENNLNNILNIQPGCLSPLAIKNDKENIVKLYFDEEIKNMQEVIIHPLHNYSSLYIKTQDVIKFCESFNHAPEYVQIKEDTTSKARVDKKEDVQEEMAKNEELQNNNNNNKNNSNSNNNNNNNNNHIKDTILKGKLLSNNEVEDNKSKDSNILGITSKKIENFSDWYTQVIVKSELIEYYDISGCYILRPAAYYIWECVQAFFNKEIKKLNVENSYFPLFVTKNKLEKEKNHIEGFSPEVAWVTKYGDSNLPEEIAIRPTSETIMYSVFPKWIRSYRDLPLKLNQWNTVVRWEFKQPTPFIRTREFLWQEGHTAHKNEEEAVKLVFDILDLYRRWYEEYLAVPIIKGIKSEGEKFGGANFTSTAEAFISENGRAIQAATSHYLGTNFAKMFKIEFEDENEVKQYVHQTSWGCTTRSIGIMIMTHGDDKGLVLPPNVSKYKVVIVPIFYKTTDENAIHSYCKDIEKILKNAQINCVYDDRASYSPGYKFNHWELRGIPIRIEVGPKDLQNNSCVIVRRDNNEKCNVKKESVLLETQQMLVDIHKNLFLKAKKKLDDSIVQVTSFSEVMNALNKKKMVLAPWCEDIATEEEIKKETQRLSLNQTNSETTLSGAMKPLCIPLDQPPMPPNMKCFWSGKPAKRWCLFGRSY
The experiment is described as follows: MMV: ProRS recombinant Plasmodium falciparum Prolyl-tRNA-synthetase, assay with yeast tRNA, ATP, and proline and 3 uM MMV malaria box compound, assay read out with kinase glo as % inhibition.

Experiment [2] has as its target T2, Putative uncharacterized protein pk7 (Plasmodium falciparum, UniProt O96214).
T2 sequence (O96214 whole entry): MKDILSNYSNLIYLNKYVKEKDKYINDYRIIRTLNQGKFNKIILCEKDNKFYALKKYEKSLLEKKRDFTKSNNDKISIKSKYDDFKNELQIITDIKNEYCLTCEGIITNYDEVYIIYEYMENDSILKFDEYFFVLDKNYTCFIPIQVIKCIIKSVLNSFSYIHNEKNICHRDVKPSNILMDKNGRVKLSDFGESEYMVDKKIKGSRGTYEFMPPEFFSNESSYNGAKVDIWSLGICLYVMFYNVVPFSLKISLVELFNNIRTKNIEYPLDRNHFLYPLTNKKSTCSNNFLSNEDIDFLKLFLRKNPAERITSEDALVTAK
Briefly: Final concentrations were 1 uM ATP, 2 mM DTT, 20 mM MgCl2, 2 mM MnCl2, 0.01% BSA, and 6 ug/ml PK7, in a buffer of 20 mM Tris-HCl (pH 7.5). The enzyme itself was the only substrate present (since autophosphorylation occurs); 100 uM 1NA-PP1 was used as a control inhibitor. Incubation time was 3 hours.

Experiment [3] deals with Calcium-dependent protein kinase 1 (Plasmodium falciparum, UniProt P62344). The experiment is described as follows: MMV: CDPK1 Protein kinase inhibition assay using recombinant PfCDPK1, syntide 2 peptide substrate, ATP and KinaseGlo to measure % inhibition at 1 uM MMV box compound.
Sequence of Calcium-dependent protein kinase 1 (P62344 whole entry): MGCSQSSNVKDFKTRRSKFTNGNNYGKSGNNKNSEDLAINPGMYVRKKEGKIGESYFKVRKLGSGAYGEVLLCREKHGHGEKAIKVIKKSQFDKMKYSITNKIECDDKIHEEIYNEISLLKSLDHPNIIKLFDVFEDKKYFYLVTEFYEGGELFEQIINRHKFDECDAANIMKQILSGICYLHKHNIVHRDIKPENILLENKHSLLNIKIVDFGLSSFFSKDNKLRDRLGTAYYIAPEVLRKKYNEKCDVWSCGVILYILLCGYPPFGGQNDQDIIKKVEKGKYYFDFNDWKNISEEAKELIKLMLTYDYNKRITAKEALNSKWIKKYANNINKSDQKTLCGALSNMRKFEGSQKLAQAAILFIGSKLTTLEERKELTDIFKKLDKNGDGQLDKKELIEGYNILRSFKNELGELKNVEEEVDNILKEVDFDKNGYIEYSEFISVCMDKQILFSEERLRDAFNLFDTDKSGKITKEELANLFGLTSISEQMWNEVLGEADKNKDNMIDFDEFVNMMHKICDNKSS
The target in experiment [4] is T3, Calcium-dependent protein kinase 4 (Plasmodium falciparum (isolate 3D7), UniProt Q8IBS5).
T3 sequence (Q8IBS5 whole entry): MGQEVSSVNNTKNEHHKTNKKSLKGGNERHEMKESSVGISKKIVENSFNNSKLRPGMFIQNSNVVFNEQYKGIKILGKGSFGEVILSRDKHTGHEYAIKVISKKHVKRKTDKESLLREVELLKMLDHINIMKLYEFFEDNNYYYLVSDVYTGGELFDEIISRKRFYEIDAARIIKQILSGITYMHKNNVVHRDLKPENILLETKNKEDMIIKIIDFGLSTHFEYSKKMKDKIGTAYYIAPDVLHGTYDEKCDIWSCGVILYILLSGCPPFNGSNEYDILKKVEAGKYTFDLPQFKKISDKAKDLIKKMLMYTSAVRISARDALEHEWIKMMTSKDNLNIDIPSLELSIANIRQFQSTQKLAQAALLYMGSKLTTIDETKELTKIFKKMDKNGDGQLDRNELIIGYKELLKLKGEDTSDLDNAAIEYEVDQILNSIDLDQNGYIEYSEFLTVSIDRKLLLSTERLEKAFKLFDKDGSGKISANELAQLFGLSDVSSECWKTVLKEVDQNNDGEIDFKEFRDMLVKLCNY
Briefly: MMV: CDPK4 Protein kinase inhibition assay using recombinant PfCDPK4, syntide2 peptide substrate, ATP and KinaseGlo to measure % inhibition at 1 uM MMV box compound.

Experiment [5] has as its target T4, Mitogen-activated protein kinase (Plasmodium falciparum, UniProt Q25917).
T4 sequence (Q25917 whole entry): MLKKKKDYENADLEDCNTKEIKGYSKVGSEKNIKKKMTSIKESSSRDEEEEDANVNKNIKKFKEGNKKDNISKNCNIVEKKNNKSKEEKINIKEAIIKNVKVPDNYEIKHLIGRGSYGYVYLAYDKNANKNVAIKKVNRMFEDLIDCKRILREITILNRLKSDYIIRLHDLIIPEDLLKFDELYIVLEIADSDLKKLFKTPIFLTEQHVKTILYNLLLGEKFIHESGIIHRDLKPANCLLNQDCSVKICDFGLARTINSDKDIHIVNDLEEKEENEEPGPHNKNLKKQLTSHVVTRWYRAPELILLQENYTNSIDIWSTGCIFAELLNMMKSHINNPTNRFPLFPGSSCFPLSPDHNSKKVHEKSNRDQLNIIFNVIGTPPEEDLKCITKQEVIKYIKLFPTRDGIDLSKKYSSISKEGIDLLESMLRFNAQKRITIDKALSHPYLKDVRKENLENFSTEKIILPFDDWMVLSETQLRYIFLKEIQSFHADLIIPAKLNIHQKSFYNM
Briefly: Final concentrations were 1 uM ATP, 0.5 mM DTT, 1 mM MgCl2, 0.5 mg/mL BSA, and 10 ug/ml MAP2 in a buffer of 50 mM HEPES (pH 7.0). 0.5 mg/mL histone III-S served as the substrate (13); 100 uM AMP-PNP, an ATP analog, was used as a control inhibitor. Incubation time was 4 hours.

Experiment [6] addresses Lysine--tRNA ligase (Plasmodium falciparum (isolate 3D7), UniProt Q8IDJ8). Briefly: MMV: KRS recombinant Plasmodium falciparum Lysyl-tRNA-synthetase, assay with yeast tRNA, ATP, and lysine and 3 uM MMV malaria box compound, assay read out with kinase glo as % inhibition.
Experiment [7] concerns the target T5, Cdk-related protein kinase 6 (Plasmodium falciparum, UniProt O77239).
T5 sequence (O77239 whole entry): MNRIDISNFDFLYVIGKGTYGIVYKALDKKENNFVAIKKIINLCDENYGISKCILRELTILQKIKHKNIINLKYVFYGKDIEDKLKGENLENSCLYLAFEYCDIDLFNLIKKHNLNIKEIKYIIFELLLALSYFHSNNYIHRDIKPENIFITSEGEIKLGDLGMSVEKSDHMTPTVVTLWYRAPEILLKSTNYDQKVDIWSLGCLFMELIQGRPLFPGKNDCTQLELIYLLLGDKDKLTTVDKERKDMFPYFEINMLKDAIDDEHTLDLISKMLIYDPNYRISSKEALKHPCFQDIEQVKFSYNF
The experiment is described as follows: Final concentrations were 1.5 uM ATP, 5 mM MnCl2, and 15 ug/ml PK6 in a buffer of 100 mM Tris-HCl (pH 7.5). 50 ug/mL MBP was provided as the substrate; 10 uM staurosporine was used as a control inhibitor. Incubation time was 3 hours and 40 minutes.The catalytic activity of each kinase was considered proportional to ATP consumed, as determined from measurements of residual [ATP] with the luciferase-based reagent Kinase-Glo (Promega) following incubation. Luminescence (proportional to residual [ATP]) was measured on the plate readers FLx800 (BioTek Instruments, Winooski, VT, USA) and MicroBeta2.

Sequence of Lysine--tRNA ligase (Q8IDJ8 whole entry): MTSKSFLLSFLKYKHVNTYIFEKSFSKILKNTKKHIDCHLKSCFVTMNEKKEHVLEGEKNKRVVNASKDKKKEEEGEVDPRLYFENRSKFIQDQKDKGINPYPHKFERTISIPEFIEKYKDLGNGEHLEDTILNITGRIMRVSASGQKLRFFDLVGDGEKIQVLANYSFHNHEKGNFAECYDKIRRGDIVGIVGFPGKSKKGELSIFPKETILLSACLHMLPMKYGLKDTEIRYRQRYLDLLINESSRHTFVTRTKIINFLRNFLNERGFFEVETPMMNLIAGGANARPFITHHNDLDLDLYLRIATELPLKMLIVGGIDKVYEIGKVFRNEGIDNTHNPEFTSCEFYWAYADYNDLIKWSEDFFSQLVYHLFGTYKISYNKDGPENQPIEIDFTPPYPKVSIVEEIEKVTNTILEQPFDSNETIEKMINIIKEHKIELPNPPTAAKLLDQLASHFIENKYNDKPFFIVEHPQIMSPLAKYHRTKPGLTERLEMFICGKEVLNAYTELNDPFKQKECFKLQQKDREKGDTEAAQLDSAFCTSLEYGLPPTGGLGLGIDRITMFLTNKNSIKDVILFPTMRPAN

Regarding `COc1cccc(Nc2nc(NCCO)c3ccccc3n2)c1`, the IC50 in experiment [1] is > 2.5 µM; in experiment [2] it was > 1 µM; in experiment [3], > 1 µM; in experiment [4] it was > 1 µM; in experiment [5] it was > 1 µM; in experiment [6], > 2.5 µM. The IC50 in experiment [7] was > 1 µM.

Turning to `COc1ccc(N2CCN(C(CNC(=O)C3CCCCC3)c3ccc4c(c3)OCO4)CC2)cc1` (centres undefined), the half-maximal inhibitory concentration (IC50) in experiment [1] is > 2.5 µM; in experiment [2], > 1 µM; in experiment [3], > 1 µM; in experiment [4], > 1 µM; in experiment [5], > 1 µM; in experiment [6] it was > 2.5 µM. Also, in experiment [7], the IC50 is > 1 µM.

With `CCOc1cc(Cl)c(C(C)NC(=O)c2cccc(OC)c2)cc1OCC` (centres undefined), the IC50 in experiment [1] is > 2.5 µM; in experiment [2] it was > 1 µM; in experiment [3], > 1 µM; in experiment [4] it was > 1 µM; in experiment [5] it was > 1 µM; in experiment [6], > 2.5 µM. In addition, the IC50 in experiment [7] is > 1 µM.

As to `Cc1ccc(Cl)cc1N1CCN(CCCNC(=O)C2CCN(c3nc4ccccc4[nH]3)CC2)CC1`, the IC50 is > 2.5 µM in experiment [1]; > 1 µM in experiment [2]; > 1 µM in experiment [3]; > 1 µM in experiment [4]; > 1 µM in experiment [5]; > 2.5 µM in experiment [6]. Moreover, the IC50 in experiment [7] is > 1 µM.

For the compound `Cc1ccc(CSCc2ccc(C(=O)NC3CC3)o2)cc1`, the IC50 in experiment [1] is > 2.5 µM; in experiment [2], > 1 µM; in experiment [3], > 1 µM; in experiment [4], > 1 µM; in experiment [5], > 1 µM; in experiment [6] it was > 2.5 µM. In addition, the IC50 in experiment [7] was > 1 µM.

Take `CCCC(c1nnnn1C1CCCCC1)N1CCN(C(=O)c2ccco2)CC1` (centres undefined): the IC50 in experiment [1] was > 2.5 µM; in experiment [2], > 1 µM; in experiment [3] it was > 1 µM; in experiment [4] it was > 1 µM; in experiment [5] it was > 1 µM; in experiment [6], > 2.5 µM. Further, the IC50 in experiment [7] was > 1 µM.

Consider `COc1cccc(-c2nn(C)c3sc(C(=O)NCCN4CCN(c5ccccc5F)CC4)cc23)c1`, for which the IC50 in experiment [1] is > 2.5 µM; in experiment [2] it was > 1 µM; in experiment [3] it was > 1 µM; in experiment [4] it was > 1 µM; in experiment [5], > 1 µM; in experiment [6] it was > 2.5 µM. For the same compound, the IC50 in experiment [7] was > 1 µM.

`Cc1ccc(CN2CCC(C(=O)Nc3ccc(-c4cc5ccccc5[nH]4)cc3)CC2)o1`: the IC50 in experiment [1] was > 2.5 µM; in experiment [2] it was > 1 µM; in experiment [3], > 1 µM; in experiment [4], > 1 µM; in experiment [5], > 1 µM; in experiment [6], > 2.5 µM. Besides, the IC50 in experiment [7] was > 1 µM.

In the case of `Cc1cc(C)c2nc(N3CCC(C(=O)NCCCN4CCC(N5CCCCC5)CC4)CC3)sc2c1`, the IC50 was > 2.5 µM in experiment [1]; > 1 µM in experiment [2]; > 1 µM in experiment [3]; > 1 µM in experiment [4]; > 1 µM in experiment [5]; > 2.5 µM in experiment [6]. Further, in experiment [7], the IC50 was > 1 µM.

For the compound `COc1ccccc1CNC(=O)C1c2ccccc2C(=O)N(CC(C)C)C1c1cccs1` (centres undefined), the IC50 was > 2.5 µM in experiment [1]; > 1 µM in experiment [2]; > 1 µM in experiment [3]; > 1 µM in experiment [4]; > 1 µM in experiment [5]; > 2.5 µM in experiment [6]. Moreover, in experiment [7], the IC50 was > 1 µM.

Turning to `O=C(Nc1ccc(F)c(Cl)c1)Nc1ccc(Cl)c(Cl)c1`, the concentration for half-maximal inhibition (IC50) in experiment [1] is > 2.5 µM; in experiment [2] it was > 1 µM; in experiment [3] it was > 1 µM; in experiment [4], > 1 µM; in experiment [5] it was > 1 µM; in experiment [6] it was > 2.5 µM. For the same compound, the IC50 in experiment [7] is > 1 µM.

For the compound `CCOc1c(Cl)cc(CNC(C)C(O)c2ccccc2)cc1OC` (centres undefined), the IC50 in experiment [1] was > 2.5 µM; in experiment [2], > 1 µM; in experiment [3], > 1 µM; in experiment [4], > 1 µM; in experiment [5] it was > 1 µM; in experiment [6], > 2.5 µM. In addition, the IC50 in experiment [7] is > 1 µM.
